In US10562857B2 (AFASCI, Inc., priority 2015, dated 2020):
Read-outs that look alike come from different tables or passages of the source.

Target: T1, Cav3.2 channel (Homo sapiens, UniProt O95180)
T1 construct: expressed in transfected cells; host or cells: HEK-293, tetracycline inducible expression system (Invitrogen)
Test: Whole-cell patch clamp of T-type Cav3.2 channel expressed in HEK293 cells
Type: cell-based

[1] = Table 1, tested at at least 4 concentrations, read-out: IC50
[2] = Table 3A, read-out: Cav3.2 IC50

T1 sequence (O95180 whole entry): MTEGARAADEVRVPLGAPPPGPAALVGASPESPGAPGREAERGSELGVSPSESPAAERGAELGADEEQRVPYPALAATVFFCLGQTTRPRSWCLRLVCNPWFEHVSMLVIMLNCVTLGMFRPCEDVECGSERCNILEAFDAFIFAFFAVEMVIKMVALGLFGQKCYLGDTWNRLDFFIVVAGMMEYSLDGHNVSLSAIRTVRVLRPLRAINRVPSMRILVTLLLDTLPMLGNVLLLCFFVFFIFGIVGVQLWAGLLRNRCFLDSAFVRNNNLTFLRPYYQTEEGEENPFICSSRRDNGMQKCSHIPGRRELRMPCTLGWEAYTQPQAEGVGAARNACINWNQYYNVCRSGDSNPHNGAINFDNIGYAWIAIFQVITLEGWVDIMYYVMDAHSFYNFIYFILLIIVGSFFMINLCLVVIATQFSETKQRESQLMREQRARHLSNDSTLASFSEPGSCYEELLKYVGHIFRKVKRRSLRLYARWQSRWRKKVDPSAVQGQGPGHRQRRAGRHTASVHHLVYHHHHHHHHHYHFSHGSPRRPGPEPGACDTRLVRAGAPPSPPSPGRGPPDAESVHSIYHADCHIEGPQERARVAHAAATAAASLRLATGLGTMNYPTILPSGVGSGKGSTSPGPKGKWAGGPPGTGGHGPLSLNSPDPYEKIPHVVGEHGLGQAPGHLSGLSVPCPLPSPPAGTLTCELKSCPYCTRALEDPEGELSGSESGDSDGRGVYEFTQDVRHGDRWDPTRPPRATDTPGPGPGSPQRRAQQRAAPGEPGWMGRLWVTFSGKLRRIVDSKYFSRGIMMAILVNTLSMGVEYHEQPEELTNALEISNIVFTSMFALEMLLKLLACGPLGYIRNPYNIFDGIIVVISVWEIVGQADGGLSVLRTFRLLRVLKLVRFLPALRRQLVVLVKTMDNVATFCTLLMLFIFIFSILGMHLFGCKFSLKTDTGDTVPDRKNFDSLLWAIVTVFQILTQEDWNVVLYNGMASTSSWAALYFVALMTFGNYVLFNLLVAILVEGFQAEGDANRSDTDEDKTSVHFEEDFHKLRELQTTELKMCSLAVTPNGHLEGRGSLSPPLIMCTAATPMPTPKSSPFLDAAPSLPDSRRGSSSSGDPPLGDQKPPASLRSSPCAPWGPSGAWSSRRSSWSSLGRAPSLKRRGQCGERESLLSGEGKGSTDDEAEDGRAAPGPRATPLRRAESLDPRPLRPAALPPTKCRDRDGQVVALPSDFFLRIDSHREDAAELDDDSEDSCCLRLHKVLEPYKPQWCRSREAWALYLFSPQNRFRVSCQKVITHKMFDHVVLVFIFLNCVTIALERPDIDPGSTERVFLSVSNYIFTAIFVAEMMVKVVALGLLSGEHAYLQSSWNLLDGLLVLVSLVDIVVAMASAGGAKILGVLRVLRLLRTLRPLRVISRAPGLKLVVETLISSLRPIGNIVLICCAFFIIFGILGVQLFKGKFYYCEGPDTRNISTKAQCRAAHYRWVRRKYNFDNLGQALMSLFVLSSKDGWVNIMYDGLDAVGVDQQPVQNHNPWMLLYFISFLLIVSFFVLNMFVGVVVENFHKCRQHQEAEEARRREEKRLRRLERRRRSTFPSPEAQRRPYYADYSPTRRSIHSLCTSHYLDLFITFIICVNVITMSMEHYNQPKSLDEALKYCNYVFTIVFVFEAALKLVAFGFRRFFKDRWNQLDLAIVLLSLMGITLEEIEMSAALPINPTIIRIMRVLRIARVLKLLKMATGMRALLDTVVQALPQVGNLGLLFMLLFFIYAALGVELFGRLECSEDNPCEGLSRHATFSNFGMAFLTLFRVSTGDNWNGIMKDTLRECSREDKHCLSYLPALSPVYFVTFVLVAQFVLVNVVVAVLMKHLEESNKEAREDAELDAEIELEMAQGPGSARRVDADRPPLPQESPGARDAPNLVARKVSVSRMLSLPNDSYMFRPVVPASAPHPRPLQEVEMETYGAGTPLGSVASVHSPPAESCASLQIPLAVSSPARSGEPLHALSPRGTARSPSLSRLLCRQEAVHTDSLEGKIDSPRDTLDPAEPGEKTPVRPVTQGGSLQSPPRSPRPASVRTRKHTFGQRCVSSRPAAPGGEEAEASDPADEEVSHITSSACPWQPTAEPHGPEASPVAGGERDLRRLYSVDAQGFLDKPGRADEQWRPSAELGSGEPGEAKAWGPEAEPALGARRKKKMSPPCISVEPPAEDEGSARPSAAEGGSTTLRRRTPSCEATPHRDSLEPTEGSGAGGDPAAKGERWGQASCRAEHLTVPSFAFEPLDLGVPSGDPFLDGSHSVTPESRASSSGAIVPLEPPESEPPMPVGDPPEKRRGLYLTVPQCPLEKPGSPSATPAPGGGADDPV

Row | Compound | IC50 [1] [nM] | IC50 (Table 2, read-out: Cav3.2 IC50) [nM] | % Use-Dep (use-dependent drug action) (Table 3A) [%] | IC50 [2] [nM] | IC50 (read-out: Cav3.2 IC50) [nM] | IC50 (read-out: IC50) [nM]
1 | CC(C)(C)NC(=O)CN1CCC2(CC1)C[C@H]2NC(=O)c1cc(Cl)cc(Cl)c1 (single isomer, unassigned) [Example 57, (R)—N-(6-(2-(tert-Butylamino)-2-oxoethyl)-6-azaspiro[2.5]octan-1-yl)-3,5-dichlorobenzamide or (S)—N-(6-(2-(tert-Butylamino)-2-oxoethyl)-6-azaspiro[2.5]octan-1-yl)-3,5-dichlorobenzamide] | 60 | 60 |  |  |  | 
2 | CC(C)(C)NC(=O)CN1CCC2(CC1)CC2NC(=O)c1cc(F)cc(Cl)c1 (single isomer, unassigned) [Example 128, (S)—N-(6-(2-(tert-Butylamino)-2-oxoethyl)-6-azaspiro[2.5]octan-1-yl)-3-chloro-5-fluorobenzamide or (R)—N-(6-(2-(tert-Butylamino)-2-oxoethyl)-6-azaspiro[2.5]octan-1-yl)-3-chloro-5-fluorobenzamide] | 110 | 90 | 21.3 | 89 |  | 
3 | CC(C)(C)NC(=O)CN1CCC2(CC1)C[C@H]2NC(=O)c1cc(F)cc(Cl)c1 (single isomer, unassigned) [Example 129, (R)—N-(6-(2-(tert-Butylamino)-2-oxoethyl)-6-azaspiro[2.5]octan-1-yl)-3-chloro-5-fluorobenzamide or (S)—N-(6-(2-(tert-Butylamino)-2-oxoethyl)-6-azaspiro[2.5]octan-1-yl)-3-chloro-5-fluorobenzamide] | 870 | 870 |  |  |  | 
4 | CC(C)(C)NC(=O)CN1CCC2(CC1)C[C@H]2NC(=O)c1cc(F)cc(C(F)(F)F)c1 (single isomer, unassigned) [Example 130, (R)—N-(6-(2-(tert-Butylamino)-2-oxoethyl)-6-azaspiro[2.5]octan-1-yl)-3-fluoro-5-(trifluoromethyl)benzamide or (S)—N-(6-(2-(tert-Butylamino)-2-oxoethyl)-6-azaspiro[2.5]octan-1-yl)-3-fluoro-5-(trifluoromethyl)benzamide] | 180 | 180 |  |  |  | 
5 | CC(C)(C)NC(=O)CN1CCC2(CC1)C[C@H]2C(=O)Nc1cc(C(F)(F)F)cc(C(F)(F)F)c1 (single isomer, unassigned) [Example 132, (R)—N-(3,5-Bis(trifluoromethyl)phenyl)-6-(2-(tert-butylamino)-2-oxoethyl)-6-azaspiro[2.5]octane-1-carboxamide or (S)—N-(3,5-Bis(trifluoromethyl)phenyl)-6-(2-(tert-butylamino)-2-oxoethyl)-6-azaspiro[2.5]octane-1-carboxamide] |  |  |  |  | 140 | 140
6 | CC(C)(C)NC(=O)CN1CCC2(CC1)C[C@H]2NC(=O)c1cc(C(F)(F)F)cc(C(F)(F)F)c1 (single isomer, unassigned) [Example 144, ((R)—N-(6-(2-(tert-butylamino)-2-oxoethyl)-6-azaspiro[2.5]octan-1-yl)-3,5-bis(trifluoromethyl)benzamide or (S)—N-(6-(2-(tert-butylamino)-2-oxoethyl)-6-azaspiro[2.5]octan-1-yl)-3,5-bis(trifluoromethyl)benzamide] | 80 | 80 |  |  |  | 
7 | CC(C)(C)NC(=O)CN1CCC2(CC1)C[C@H]2NC(=O)C12CC3CC(CC(C3)C1)C2 (single isomer, unassigned) [Example 145, N—((R)-6-(2-(tert-butylamino)-2-oxoethyl)-6-azaspiro[2.5]octan-1-yl)adamantane-1-carboxamide or N—((S)-6-(2-(tert-butylamino)-2-oxoethyl)-6-azaspiro[2.5]octan-1-yl)adamantane-1-carboxamide] | 140 | 140 |  |  |  | 
8 | CC(C)(C)CCN1CCC2(CC1)C[C@H]2NC(=O)c1cc(C(F)(F)F)cc(C(F)(F)F)c1 (single isomer, unassigned) [Example 146, (R)—N-(6-(3,3-dimethylbutyl)-6-azaspiro[2.5]octan-1-yl)-3,5-bis(trifluoromethyl)benzamide or (S)—N-(6-(3,3-dimethylbutyl)-6-azaspiro[2.5]octan-1-yl)-3,5-bis(trifluoromethyl)benzamide] | 70 | 70 |  |  |  | 
9 | CC(C)(C)CCN1CCC2(CC1)C[C@H]2NC(=O)c1cc(C(F)(F)F)ccc1Cl (single isomer, unassigned) [Example 147, (R)-2-Chloro-N-(6-(3,3-dimethylbutyl)-6-azaspiro[2.5]octan-1-yl)-5-(trifluoromethyl)benzamide or (S)-2-Chloro-N-(6-(3,3-dimethylbutyl)-6-azaspiro[2.5]octan-1-yl)-5-(trifluoromethyl)benzamide] | 130 | 130 |  |  |  | 
10 | CC(C)(C)NC(=O)CN1CCC2(CC1)CC2NC(=O)c1cc(F)cc(Cl)c1 (stereo not drawn) [Example 17, N-(6-(2-(tert-Butylamino)-2-oxoethyl)-6-azaspiro[2.5]octan-1-yl)-3-chloro-5-fluorobenzamide] | 240 | 240 |  |  |  | 
11 | CC(C)(C)CCN1CCC2(CC1)CC2NC(=O)c1cc(F)cc(Cl)c1 (stereo not drawn) [Example 28, 3-Chloro-N-(6-(3,3-dimethylbutyl)-6-azaspiro[2.5]octan-1-yl)-5-fluorobenzamide] | 70 | 70 |  |  |  | 
12 | O=C(Nc1nnc(-c2ccccc2)o1)c1ccc(Cl)s1 [Example 115, 5-Chloro-N-(5-phenyl-1,3,4-oxadiazol-2-yl)thiophene-2-carboxamide] | 930 |  |  |  |  | 
13 | CC(C)(C)NC(=O)CN1CCC2(CC1)CC2C(=O)Nc1cc(F)cc(C(F)(F)F)c1 (stereo not drawn) [Example 141, 6-(2-(tert-Butylamino)-2-oxoethyl)-N-(3-fluoro-5-(trifluoromethyl)phenyl)-6-azaspiro[2.5]octane-1-carboxamide] | 180 | 180 |  |  |  | 
14 | CC(C)(C)CCN1C[C@@H]2[C@@H](CNC(=O)c3cc(Cl)cc(Cl)c3)[C@@H]2C1 [ML218, 3,5-Dichloro-N-[[(1α,5α,6-exo,6α)-3-(3,3-dimethylbutyl)-3-azabicyclo[3.1.0]hex-6-yl]methyl]benzamide, reference compound] |  | 310 | 19.2 | 310 |  | 
15 | CC(C)(C)NC(=O)CN1CCC(CNC(=O)c2cc(F)cc(Cl)c2)CC1 [Z944, reference compound] |  | 190 | 17.6 | 200 |  | 
